Reference: ChEMBL document CHEMBL1201862, “PubChem BioAssay data set” (2004)
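Values below derive from 48-hour exposures of cells grown in 96-well plates, with endpoints linearly interpolated between the two concentrations bracketing the appropriate inhibition level. The concentration for 50% growth inhibition is given as GI50.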 Active and inactive are the calls of the source. Rule as the data show it: active = GI50 up to about 1.1 µM and inactive = higher. Square brackets hold non-standard residues; d marks the D form. Peptide text beside a SMILES is read from it. * marks the point of attachment. Phe(4-NO2) = N[CH](Cc1ccc([N+](=O)[O-])cc1)C(=O)O; Boc = CC(C)(C)OC(=O)*

Experiments:
Experiment in all cases: NCI anticancer screen, dose series, 48 h
[1] = tested on: SN12C
[2] = tested on: MDA-N
[3] = tested on: SNB-19
[4] = tested on: A498
[5] = tested on: LOX IMVI
[6] = tested on: NCI-H226
[7] = tested on: Malme-3M
[8] = tested on: MDA-MB-435
[9] = tested on: SF-539
[10] = tested on: CAKI-1
[11] = tested on: PC-3
[12] = tested on: RXF 393
[13] = tested on: EKVX
[14] = tested on: NCI-H23
[15] = tested on: ACHN
[16] = tested on: NCI-H460
[17] = tested on: SF-295
[18] = tested on: M14
[19] = tested on: RPMI-8226
[20] = tested on: KM12
[21] = tested on: SR
[22] = tested on: SK-OV-3
[23] = tested on: OVCAR-8
[24] = tested on: U-251
[25] = tested on: A549
[26] = tested on: T47D
[27] = tested on: IGROV-1
[28] = tested on: BT-549
[29] = tested on: 786-0
[30] = tested on: UACC-62
[31] = tested on: NCI/ADR-RES
[32] = tested on: HCT-15
[33] = tested on: COLO 205
[34] = tested on: HCT-116
[35] = tested on: HOP-62
[36] = tested on: SK-MEL-28
[37] = tested on: K562
[38] = tested on: OVCAR-5
[39] = tested on: HOP-92
[40] = tested on: HCC 2998
[41] = tested on: SF-268
[42] = tested on: TK-10
[43] = tested on: MDA-MB-231
[44] = tested on: UO-31
[45] = tested on: SW-620
[46] = tested on: NCI-H522
[47] = tested on: SNB-75
[48] = tested on: OVCAR-4
[49] = tested on: DU-145
[50] = tested on: HT-29
[51] = tested on: Hs-578T
[52] = tested on: MCF7
[53] = tested on: OVCAR-3
[54] = tested on: MOLT-4
[55] = tested on: HL-60
[56] = tested on: SK-MEL-5
[57] = tested on: CCRF-CEM
[58] = tested on: UACC-257

In the case of `CNC(=O)CCC(NC(=O)OC(C)(C)C)C(=O)NC(Cc1ccc([N+](=O)[O-])cc1)C(=O)NCC(=O)NC` (stereo not drawn) (Boc-Glu(NHMe)-[Phe(4-NO2)]-Gly-NHMe; configuration not given here), the GI50 [1] is reported as > 100 µM (inactive), the GI50 [2] is reported as > 100 µM (inactive) and the GI50 [3] is reported as > 100 µM (inactive). The GI50 [4] was 68.2 µM (inactive), the GI50 [5] was > 100 µM (inactive) and the GI50 [6] was > 100 µM (inactive). The GI50 [7] was > 100 µM (inactive), the GI50 [8] was > 100 µM (inactive) and the GI50 [9] was > 100 µM (inactive). The GI50 [10] was > 100 µM (inactive), the GI50 [11] was > 100 µM (inactive) and the GI50 [12] was > 100 µM (inactive). The GI50 [13] was > 100 µM (inactive), the GI50 [14] was > 100 µM (inactive) and the GI50 [15] was > 100 µM (inactive). The GI50 [16] was > 100 µM (inactive), the GI50 [17] was > 100 µM (inactive) and the GI50 [18] was > 100 µM (inactive). The GI50 [19] was > 100 µM (inactive), the GI50 [20] was > 100 µM (inactive) and the GI50 [21] was > 100 µM (inactive). For the same molecule, the GI50 [22] was > 100 µM (inactive), the GI50 [23] was > 100 µM (inactive) and the GI50 [24] was > 100 µM (inactive). For the same molecule, the GI50 [25] was > 100 µM (inactive), the GI50 [26] was > 100 µM (inactive) and the GI50 [27] was > 100 µM (inactive). For the same molecule, the GI50 [28] was > 100 µM (inactive), the GI50 [29] was > 100 µM (inactive) and the GI50 [30] was > 100 µM (inactive). The GI50 [31] was > 100 µM (inactive), the GI50 [32] was greater than 100 µM and the GI50 [33] was > 100 µM (inactive). The GI50 [34] was > 100 µM (inactive), the GI50 [35] was > 100 µM (inactive) and the GI50 [36] was > 100 µM (inactive). For the same molecule, the GI50 [37] was > 100 µM (inactive), the GI50 [38] was > 100 µM (inactive) and the GI50 [39] was > 100 µM (inactive). The GI50 [40] was > 100 µM (inactive), the GI50 [41] was > 100 µM (inactive) and the GI50 [42] was > 100 µM (inactive). The GI50 [43] was > 100 µM (inactive), the GI50 [44] was > 100 µM (inactive) and the GI50 [45] was > 100 µM (inactive). The GI50 [46] was > 100 µM (inactive), the GI50 [47] was > 100 µM (inactive) and the GI50 [48] was > 100 µM (inactive). The GI50 [49] was > 100 µM (inactive), the GI50 [50] was > 100 µM (inactive) and the GI50 [51] was > 100 µM (inactive). For the same molecule, the GI50 [52] was > 100 µM (inactive), the GI50 [53] was > 100 µM (inactive) and the GI50 [54] was > 100 µM (inactive). For the same molecule, the GI50 [55] was > 100 µM (inactive) and the GI50 [56] was > 100 µM (inactive).

With `Cc1cc(C)n(-c2nc(C)c(CCO)c(=O)[nH]2)n1` the GI50 [1] was > 100 µM (inactive), the GI50 [2] was > 100 µM (inactive) and the GI50 [3] was > 100 µM (inactive). For the same molecule, the GI50 [5] was > 100 µM (inactive), the GI50 [6] was > 100 µM (inactive) and the GI50 [7] was > 100 µM (inactive). The GI50 [8] was > 100 µM (inactive), the GI50 [9] was > 100 µM (inactive) and the GI50 [10] was > 10 µM (inactive). The GI50 [11] was > 100 µM (inactive), the GI50 [12] was > 100 µM (inactive) and the GI50 [13] was > 100 µM (inactive). The GI50 [14] was > 100 µM (inactive), the GI50 [15] was > 100 µM (inactive) and the GI50 [16] was > 100 µM (inactive). For the same molecule, the GI50 [17] was > 100 µM (inactive), the GI50 [18] was > 100 µM (inactive) and the GI50 [19] was > 100 µM (inactive). For the same molecule, the GI50 [20] was > 100 µM (inactive), the GI50 [21] was > 100 µM (inactive) and the GI50 [22] was > 100 µM (inactive). The GI50 [23] was > 100 µM (inactive), the GI50 [24] was > 100 µM (inactive) and the GI50 [25] was > 100 µM (inactive). The GI50 [26] was > 100 µM (inactive), the GI50 [27] was > 100 µM (inactive) and the GI50 [28] was > 100 µM (inactive). For the same molecule, the GI50 [29] was > 100 µM (inactive), the GI50 [30] was > 100 µM (inactive) and the GI50 [31] was 52 µM (inactive). For the same molecule, the GI50 [32] was greater than 100 µM, the GI50 [33] was > 100 µM (inactive) and the GI50 [34] was > 100 µM (inactive). For the same molecule, the GI50 [35] was > 100 µM (inactive), the GI50 [36] was > 100 µM (inactive) and the GI50 [37] was > 100 µM (inactive). For the same molecule, the GI50 [38] was > 100 µM (inactive), the GI50 [39] was > 100 µM (inactive) and the GI50 [40] was > 100 µM (inactive). For the same molecule, the GI50 [41] was > 100 µM (inactive), the GI50 [57] was > 100 µM (inactive) and the GI50 [42] was > 100 µM (inactive). For the same molecule, the GI50 [43] was > 100 µM (inactive), the GI50 [44] was > 100 µM (inactive) and the GI50 [45] was > 100 µM (inactive). The GI50 [58] was > 100 µM (inactive), the GI50 [46] was > 100 µM (inactive) and the GI50 [47] was 97.5 µM (inactive). The GI50 [48] was > 100 µM (inactive), the GI50 [49] was > 100 µM (inactive) and the GI50 [50] was > 100 µM (inactive). For the same molecule, the GI50 [51] was > 100 µM (inactive), the GI50 [52] was > 100 µM (inactive) and the GI50 [53] was > 100 µM (inactive). For the same molecule, the GI50 [54] was > 100 µM (inactive), the GI50 [55] was > 100 µM (inactive) and the GI50 [56] was > 100 µM (inactive).
